From patent US20090028871A1, “NOVEL USE OF LIGANDS SPECIFIC TO FEX-2 POLYPEPTIDE” (KYUNGPOOK NATIONAL UNIVERSITY INDUSTRY-ACADEMIC COOPERATION …, priority 2004, published 2009)

What was measured:
L/FEX-2 cells = assay: Inhibition of binding and phagocytosis of aged red blood cells by L/FEX-2 cells; assay type: cell-based, mouse; conditions: L/FEX-2 cells pre-cultured with 100 μM, 37° C., 30 minutes; relative to control group taken as 100%
Method: Whether or not aged red blood cells are bound and phagocytosed by the L/FEX-2 cells prepared in Example <1-2> and L/Mock cells as a control group was examined. For this purpose, normal red blood cells obtained from normal adult volunteers were first diluted with PBS to a hematocrit concentration of 20% and cultured at 37° C. for 4 days, thus preparing aged red blood cells. Then, each of L/FEX-2 cells, L/Mock cells and normal L cells was cultured to a confluent 6-well plate comprising Dulbecco's modified Eagle's medium (DMEM). To the culture media, aged red blood cells and normal red blood cells were added to a hematocrit concentration of 1% and cultured at 37° C. for one hour. Then, the cells were washed five times with PBS, and observed for the binding of the aged red blood cells and normal red blood cells using an optical microscope. The number of red blood cells bound to 100 randomly selected L/FEX-2 cells was counted and averaged. To analyze phagocytosis, the cells were washed with PBS and treated with water for 10 seconds to completely dissolve undigested cells. Then, the L/FEX-2 cells were stained using the Diff quick staining kit (IMEM Ins., San Marcos, Calif., USA), and five sites from the stained cells were randomly selected and counted for the number of cells which have phagocytosed red blood cells phagocytosed. Binding and phagocytosis indexes (%) were expressed as the percentages of cells having red blood cells bound and phagocytosed thereby, relative to the entire L/FEX-2 cells.
To the L/FEX-2 cells prepared in Example <1-2>, 100 μg/ml of the human FEX-2 monoclonal antibody (5G3) was added and the mixture was pre-cultured at 37° C. for one hour. As a control group, mouse immunoglobulin (IgG1) in place of the FEX-2 monoclonal antibody was used. […] After completion of the culture, the binding and phagocytosis of the aged red blood cells were analyzed in the same manner as in Example <4-1>. In this regard, the binding and phagocytosis of the aged red blood cells were expressed as inhibition percentage relative to the case of L/FEX-2 cells, which have not been pre-cultured with the antibody.
Whether the binding and phagocytosis of red blood cells by the L/FEX-2 cells are inhibited, it was examined by pre-culturing the L/FEX-2 cells with each of the PS liposome, PI liposome, PG liposome, PE liposome, PA liposome and PC liposome prepared in Example <5-3> and then additionally culturing the pre-cultured cells with aged red blood cells. […] After completion of the culture, the binding and phagocytosis of the aged red blood cells were analyzed in the same manner as in. […] The binding and phagocytosis of aged red blood cells were expressed as values relative to the control group taken as 100%. […]

[1] = system: premyelomonocytic leukemic U937 cells; assay: Induction of apoptosis in U937 cells (annexin V flow cytometry); assay type: cell-based, human; conditions: 100 ng/ml, 4 hours
Method: For this purpose, the apoptosis of human leukemic Jurkat T cells (Korean cell line bank) and premyelomonocytic leukemic U937 cells (Korean cell line bank) was induced. The cells were cultured in an RPMI 1640 medium comprising 10% fetal bovine serum. The induction of apoptosis of the Jurkat T cells was performed according to a known method by inoculating the Jurkat T cells in a medium comprising 100 ng/ml of an anti-Fas antibody (CH-11) and culturing the inoculated cells for 6 hours (Oka, K. et al., Proc Natl Acad Sci USA, 95:9535-40, 1998). Also, the induction of apoptosis of the U937 cells was performed according to a known method by inoculating the U937 cells in a medium comprising 100 ng/ml of ectoposide and culturing the inoculated cells for 4 hours (Bave, U., et. al., J Immunol 165:3519-26, 2000). The degree of apoptosis of the cells was determined by measuring the amount of phosphatidylserine expressed on the cell surface, by flow cytometry in the same manner as in Example <5-1> using the annexin V apoptosis detection kit (Santacruz) according to the manufacturer's instruction.

| Structure (SMILES) | binding of aged red blood cells (L/FEX-2 cells) | phagocytosis of aged red blood cells (L/FEX-2 cells) | apoptosis of the cells (phosphatidylserine on cell surface, annexin V) [1] |
| --- | --- | --- | --- |
| N[C@H](COP(=O)(O)O)C(=O)O [PDS, phospho-D-serine] | no significant effect | no significant effect |  |
| N[C@@H](COP(=O)(O)O)C(=O)O [PLS, phospho-L-serine] | significant inhibition | significant inhibition |  |
| COc1cc([C@@H]2c3cc4c(cc3[C@@H](O[C@@H]3O[C@@H]5CO[C@@H](C)O[C@H]5[C@H](O)[C@H]3O)[C@H]3COC(=O)[C@H]23)OCO4)cc(OC)c1O [ectoposide] |  |  | induced |
